molecular target: T1, Mucosa-associated lymphoid tissue lymphoma translocation protein 1 (Homo sapiens, UniProt Q9UDY8); experiment: MALT-1 Inhibition Assay
T1 sequence (Q9UDY8 whole entry): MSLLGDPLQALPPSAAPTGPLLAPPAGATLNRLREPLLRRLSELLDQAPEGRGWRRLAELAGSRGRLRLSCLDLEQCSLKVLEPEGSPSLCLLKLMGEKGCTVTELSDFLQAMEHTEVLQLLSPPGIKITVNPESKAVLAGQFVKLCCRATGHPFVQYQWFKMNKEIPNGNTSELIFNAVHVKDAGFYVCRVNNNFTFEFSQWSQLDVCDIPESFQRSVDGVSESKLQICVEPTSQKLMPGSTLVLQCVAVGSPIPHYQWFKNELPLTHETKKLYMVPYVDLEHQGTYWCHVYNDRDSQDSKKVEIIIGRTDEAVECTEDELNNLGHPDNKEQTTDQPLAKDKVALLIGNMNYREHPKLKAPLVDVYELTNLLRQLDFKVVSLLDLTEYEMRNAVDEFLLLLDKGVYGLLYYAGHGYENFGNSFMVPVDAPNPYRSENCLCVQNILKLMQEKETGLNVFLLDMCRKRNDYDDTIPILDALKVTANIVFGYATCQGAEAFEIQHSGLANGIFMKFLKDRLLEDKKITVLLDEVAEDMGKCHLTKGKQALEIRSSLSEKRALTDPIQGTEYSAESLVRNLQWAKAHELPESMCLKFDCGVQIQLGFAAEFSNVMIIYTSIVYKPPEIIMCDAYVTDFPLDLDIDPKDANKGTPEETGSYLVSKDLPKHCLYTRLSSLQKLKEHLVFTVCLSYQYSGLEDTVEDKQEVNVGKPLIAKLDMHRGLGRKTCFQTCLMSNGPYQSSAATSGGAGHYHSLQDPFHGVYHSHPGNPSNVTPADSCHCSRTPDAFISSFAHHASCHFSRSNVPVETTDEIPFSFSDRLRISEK
Experimental: MALT-1 paracaspase activity was measured using the fluorogenic substrate Ac-LRSR-Rh110-DP (purchased from Biosantan GmbH). Proteolytic cleavage of the peptide—rhodamine conjugate results in an increase of rhodamine fluorescence which is inhibited by test compounds. Test compounds were diluted in DMSO in a series of 10 semi-log step doses, 15 nL of each compound dose were dispensed in 384 well polypropylene plates (HiBase non-binding, Greiner Bio-One cat #784900). All other assay components were diluted to appropriate working concentrations in assay buffer composed of: 200 mM Tris-HCl (pH 7.5; Sigma-Aldrich cat #T2663-1L), 0.1 mM EGTA (Sigma-Aldrich cat #E3889-10G), 0.05% CHAPS—Sigma-Aldrich cat #C9426-1G), 1 mM TCEP (Sigma-Aldrich cat #646547-10×1 mL), 0.8 M sodium citrate (Sigma-Aldrich cat #S1804-500G). Recombinant human MALT-1 (amino acids 340-824, accession NP_006776.1) was added to compound doses and equilibrated for 40 minutes at rt. The reaction was initiated by addition of substrate. Final concentrations of MALT-1 and substrate were 3 nM and 10 μM respectively. Reactions were incubated in the dark for 60 minutes at 25° C. Fluorescence was measured in a PHERAstar FSX plate reader (BMG LABTECH) with optical setup for excitation at 485 nm and emission at 520 nm, focal height of 11.8 mm, 20 flashes, gain 300. Percent inhibition values were calculated from relative fluorescence units at different doses and fitted to a 4-parameter logistic curve to determine IC50 values.

Structure (SMILES)	IC50 [nM]
COC[C@@H]1CCN(c2ccc([C@H](N(C)C(=O)C3CCS(=O)(=O)CC3)C(F)(F)F)cc2)c2cnc3cc(Cl)nn3c21 [US20250051327, Reference CPD0073503]	115
COC[C@@]1(C)CCN(c2ccc([C@H](N(C)C(=O)C3CCS(=O)(=O)CC3)C(F)(F)F)cc2)c2cnc3cc(Cl)nn3c21 [US20250051327, Reference CPD0073139]	112
COc1ccc2ncc(Nc3ccc([C@H](N(C)C(=O)[C@H]4CC[S@@+]([O-])CC4)C(F)(F)F)cc3)c([C@H](C)OC)c2n1 (relative stereo) [US20250051327, Reference CPD0072935]	75
CN(C(=O)[C@H]1C[C@@H]([S@@+](C)(=N)[O-])C1)[C@@H](c1ccc(N2CCCc3c2cnc2cc(Cl)nn32)cc1)C(F)(F)F [US20250051327, Reference CPD0073223]	57
COc1ccc2ncc(Nc3ccc([C@H](N(C)C(=O)C4CCN(C(C)=O)CC4)C(F)(F)F)cc3)c([C@H](C)OC)c2n1 (relative stereo) [US20250051327, Reference CPD0074559]	153
COc1ccc2ncc(Nc3ccc([C@H](N(C)C(=O)C4CCS(=O)(=O)CC4)C(F)(F)F)cc3)c([C@H]3CCCO3)c2n1 (relative stereo) [US20250051327, Reference CPD0074043]	107
CN(C(=O)[C@H]1CCN(C(=O)CC#N)C1)[C@@H](c1ccc(N2CCCc3c2cnc2cc(Cl)nn32)cc1)C(F)(F)F [US20250051327, Reference CPD0073191]	96
COC[C@]1(C)CCN(c2ccc([C@H](N(C)C(=O)C3CCS(=O)(=O)CC3)C(F)(F)F)cc2)c2cnc3cc(Cl)nn3c21 [US20250051327, Reference CPD0073140]	92
COc1ccc2ncc(Nc3ccc([C@H](N(C)C(=O)[C@H]4CNC(=O)C4)C(F)(F)F)cc3)c([C@H](C)OC)c2n1 (relative stereo) [US20250051327, Reference CPD0074562]	79
COc1ccc2ncc(Nc3ccc([C@H](N(C)C(=O)C4CCS(=O)(=O)CC4)C(F)(F)F)cc3)c([C@@H]3CCOC3)c2n1 [US20250051327, Reference CPD0074040]	83
CO[C@@H](C)c1c(Nc2ccc([C@H](N(C)C(=O)C3CN(S(C)(=O)=O)C3)C(F)(F)F)cc2)cnn2cc(Cl)nc12 [US20250051327, Reference CPD0084936]	65
COc1ccc2ncc(Nc3ccc([C@H](N(C)C(=O)C4CCS(=O)(=O)CC4)C(F)(F)F)cc3)c([C@@H]3CCCO3)c2n1 (relative stereo) [US20250051327, Reference CPD0074044]	218
C[C@H]1CCN(c2ccc([C@H](N(C)C(=O)[C@H]3CC[S@](=N)(=O)CC3)C(F)(F)F)cc2)c2cnc3cc(F)nn3c21 (relative stereo) [US20250051327, Reference CPD0074553]	39
O=C(CC1CS(=O)(=O)C1)N[C@@H](c1ccc(N2CCCc3c2cnc2cc(Cl)nn32)cc1)C(F)(F)F [US20250051327, Reference CPD0073535]	403
COc1ccc2ncc(Nc3ccc([C@H](N(C)C(=O)[C@@H]4CNC(=O)C4)C(F)(F)F)cc3)c([C@@H]3CCOC3)c2n1 [US20250051327, Reference CPD0084142]	41
CN(C(=O)[C@H]1CC[S@](=N)(=O)CC1)[C@@H](c1ccc(N2CC(C)(C)Cc3c2cnc2cc(Cl)nn32)cc1)C(F)(F)F [US20250051327, Reference CPD0073497]	52
CN(C(=O)C1CCS(=O)(=O)CC1)[C@@H](c1ccc(N2CC[C@@]3(CCOC3)c3c2cnc2cc(Cl)nn32)cc1)C(F)(F)F [US20250051327, Reference CPD0073762]	53
COc1ccc2ncc(Nc3ccc([C@H](N(C)C(=O)[C@@H]4CNC(=O)C4)C(F)(F)F)cc3)c([C@H](C)OC)c2n1 (relative stereo) [US20250051327, Reference CPD0074550]	81

Structure (SMILES)	IC50 [nM]
CN(C(=O)[C@@H]1CS(=O)(=O)CC12COC2)[C@@H](c1ccc(N2CCCc3c2cnc2cc(Cl)nn32)cc1)C(F)(F)F [US20250051327, Reference CPD0073974]	155
CN(C(=O)[C@H]1CC[S@@](=N)(=O)CC1)[C@@H](c1ccc(N2CC(C)(C)Cc3c2cnc2cc(Cl)nn32)cc1)C(F)(F)F [US20250051327, Reference CPD0073498]	53
CO[C@@H](C)c1c(Nc2ccc([C@H](N(C)C(=O)[C@@H]3CCC(=O)NC3)C(F)(F)F)cc2)cnn2cc(Cl)nc12 (relative stereo) [US20250051327, Reference CPD0082472]	41
CO[C@@H](C)c1c(Nc2ccc([C@H](N(C)C(=O)[C@H]3CCC(=O)NC3)C(F)(F)F)cc2)cnn2cc(Cl)nc12 (relative stereo) [US20250051327, Reference CPD0082471]	37
COc1ccc2ncc(Nc3ccc([C@H](N(C)C(=O)C4CCS(=O)(=O)CC4)C(F)(F)F)cc3)c(C3(OC)COC3)c2n1 [US20250051327, Reference CPD0076414]	124
CN(C(=O)C1CCS(=O)(=O)CC1)[C@@H](c1ccc(N2CCC3(CC3)c3c2cnc2cc(Cl)nn32)cc1)C(F)(F)F [US20250051327, Reference CPD0019590]	64
COc1ccc2ccc(Nc3ccc([C@H](N(C)C(=O)C4CCS(=O)(=O)CC4)C(F)(F)F)cc3)cc2n1 [US20250051327, Reference CPD0019078]	182
COc1ccc2ncc(Nc3ccc([C@H](N(C)C(=O)[C@H]4CNC(=O)C4)C(F)(F)F)cc3)c([C@H]3CCOC3)c2n1 (relative stereo) [US20250051327, Reference CPD0084143]	72
COc1ccc2ncc(Nc3ccc([C@H](N(C)C(=O)[C@@H]4CCC(=O)N4)C(F)(F)F)cc3)c([C@H](C)OC)c2n1 (relative stereo) [US20250051327, Reference CPD0075580]	47
CN(C(=O)[C@@H]1CCN(C(=O)CC#N)C1)[C@@H](c1ccc(N2CCCc3c2cnc2cc(Cl)nn32)cc1)C(F)(F)F [US20250051327, Reference CPD0073190]	114
COc1ccc2ncc(Nc3ccc([C@H](N(C)C(=O)[C@H]4CC[S@+]([O-])CC4)C(F)(F)F)cc3)c([C@H](C)OC)c2n1 (relative stereo) [US20250051327, Reference CPD0072936]	68
CO[C@@H](C)c1c(Nc2ccc([C@H](N(C)C(=O)CN3CCN(C)CC3)C(F)(F)F)cc2)cnn2cc(Cl)nc12 [US20250051327, Reference CPD0084933]	137
CO[C@@H](C)c1c(Nc2ccc([C@H](N(C)C(=O)[C@H]3CCN(C(=O)CO)C3)C(F)(F)F)cc2)cnn2cc(Cl)nc12 (relative stereo) [US20250051327, Reference CPD0084139]	52
COc1ccc2ncc(Nc3ccc([C@H](N(C)C(=O)C4CCS(=O)(=O)CC4)C(F)(F)F)cc3)c([C@H](C)OC)c2n1 (relative stereo) [US20250051327, Reference CPD0019170]	65
CO[C@@H](C)c1c(Nc2ccc([C@H](N(C)C(=O)[C@H]3CNC(=O)C3)C(F)(F)F)cc2)cnn2cc(Cl)nc12 (relative stereo) [US20250051327, Reference CPD0082467]	42
CN(C(=O)C1CCS(=O)(=O)CC1)[C@@H](c1ccc(N2CC[C@]3(CCOC3)c3c2cnc2cc(Cl)nn32)cc1)C(F)(F)F [US20250051327, Reference CPD0073763]	57
CN(C(=O)C1CCS(=O)(=O)CC1)[C@@H](c1ccc(N2CCC3(CC3)c3c2cnc2cc(Cl)nn32)nc1)C(F)(F)F [US20250051327, Reference CPD0021660]	87
COc1ccc2ncc(Nc3ccc([C@H](N(C)C(=O)C4CCS(=O)(=O)CC4)C(F)(F)F)cn3)c(C(C)OC)c2n1 (stereo partly specified) [US20250051327, Reference CPD0019007]	242

— BindingDB's records for patent US20250051327 (Exscientia AI, 2025)
